The compounds below were run against T1, KRAS^G12C::SOS1 (Homo sapiens, UniProt Q07889) (assay: KRAS G12C::SOS1 protein-protein interaction (PPI) inhibition assay (HTRF binding kit)).
T1 sequence (Q07889 1-1333): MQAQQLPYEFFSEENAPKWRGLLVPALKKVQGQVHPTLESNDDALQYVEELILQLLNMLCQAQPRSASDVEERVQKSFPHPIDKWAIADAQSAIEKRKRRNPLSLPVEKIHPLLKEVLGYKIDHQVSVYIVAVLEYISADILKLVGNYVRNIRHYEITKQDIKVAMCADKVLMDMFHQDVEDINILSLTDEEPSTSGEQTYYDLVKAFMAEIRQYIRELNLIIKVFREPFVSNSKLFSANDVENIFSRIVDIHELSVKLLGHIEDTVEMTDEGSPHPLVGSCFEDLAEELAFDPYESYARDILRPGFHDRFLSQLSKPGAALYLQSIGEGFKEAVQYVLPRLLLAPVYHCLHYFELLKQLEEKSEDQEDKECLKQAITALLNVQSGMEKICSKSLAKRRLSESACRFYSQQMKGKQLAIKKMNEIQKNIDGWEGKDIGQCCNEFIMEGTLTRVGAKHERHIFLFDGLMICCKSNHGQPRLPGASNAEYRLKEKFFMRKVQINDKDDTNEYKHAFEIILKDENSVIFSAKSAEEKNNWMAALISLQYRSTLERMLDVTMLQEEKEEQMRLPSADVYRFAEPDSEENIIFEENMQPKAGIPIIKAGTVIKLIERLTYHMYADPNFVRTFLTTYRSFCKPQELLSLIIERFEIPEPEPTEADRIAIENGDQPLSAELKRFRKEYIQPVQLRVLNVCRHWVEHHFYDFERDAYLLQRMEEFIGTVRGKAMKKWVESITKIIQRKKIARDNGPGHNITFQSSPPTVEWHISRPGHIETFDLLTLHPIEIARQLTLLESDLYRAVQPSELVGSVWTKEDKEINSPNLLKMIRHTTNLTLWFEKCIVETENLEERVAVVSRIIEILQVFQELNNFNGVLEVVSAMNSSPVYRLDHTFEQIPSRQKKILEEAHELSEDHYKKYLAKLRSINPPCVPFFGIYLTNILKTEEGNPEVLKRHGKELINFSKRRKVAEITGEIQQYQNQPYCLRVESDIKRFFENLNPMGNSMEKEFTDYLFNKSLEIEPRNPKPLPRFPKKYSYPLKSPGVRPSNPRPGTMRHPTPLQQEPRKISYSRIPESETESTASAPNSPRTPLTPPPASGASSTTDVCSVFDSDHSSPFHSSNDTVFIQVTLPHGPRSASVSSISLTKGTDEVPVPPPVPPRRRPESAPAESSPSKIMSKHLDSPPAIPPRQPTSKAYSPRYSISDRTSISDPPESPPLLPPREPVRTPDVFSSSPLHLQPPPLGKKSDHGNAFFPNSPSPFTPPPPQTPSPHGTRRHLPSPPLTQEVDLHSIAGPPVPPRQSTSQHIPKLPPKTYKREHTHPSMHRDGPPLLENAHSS

SMILES	IC50 [nM]
CNC(=O)c1cccc(-n2nc(C(=O)N[C@H](C)c3cc(N)cc(C(F)(F)F)c3)ccc2=O)c1F [Example 231, (R)-N-(1-(3-amino-5-(trifluoromethyl)phenyl)ethyl)-1-(2-fluoro-3-(methylcarbamoyl)phenyl)-6-oxo-1,6-dihydropyridazine-3-carboxamide]	< 1000
COCC(F)(F)c1cccc([C@@H](C)NC(=O)c2ccc(=O)n(-c3ccccc3F)n2)c1F [Example 242, N-[(1R)-1-[3-(1,1-difluoro-2-methoxy-ethyl)-2-fluoro-phenyl]ethyl]-1-(2-fluorophenyl)-6-oxo-pyridazine-3-carboxamide]	< 1000
COc1cccc(-n2nc(C(=O)N[C@H](C)c3cc(N)cc(C(F)(F)F)c3)ccc2=O)c1F [Example 185, N-[(1R)-1-[3-amino-5-(trifluoromethyl)phenyl]ethyl]-1-(2-fluoro-3-methoxy-phenyl)-6-oxo-pyridazine-3-carboxamide]	< 1000
CCn1nncc1-c1cccc(-n2nc(C(=O)N[C@H](C)c3cc(N)cc(C(F)(F)F)c3)ccc2=O)c1 [Example 327, N-[(1R)-1-[3-amino-5-(trifluoromethyl)phenyl]ethyl]-1-[3-(3-ethyltriazol-4-yl)phenyl]-6-oxo-pyridazine-3-carboxamide]	< 1000
C[C@@H](NC(=O)c1nn(-c2ccccc2F)c(=O)cc1N)c1cc(N)cc(C(F)(F)F)c1 [Example 381, 4-amino-N-[(1R)-1-[3-amino-5-(trifluoromethyl)phenyl]ethyl]-1-(2-fluorophenyl)-6-oxo-pyridazine-3-carboxamide]	< 1000
C[C@@H](NC(=O)c1ccc(=O)n(-c2ccc3cnn(C)c3c2F)n1)c1cc(N)cc(C(F)(F)F)c1 [Example 240, N-[(1R)-1-[3-amino-5-(trifluoromethyl)phenyl]ethyl]-1-(7-fluoro-1-methyl-1H-indazol-6-yl)-6-oxo-1,6-dihydropyridazine-3-carboxamide]	< 1000
C[C@@H](NC(=O)c1ccc(=O)n(-c2ccccc2F)n1)c1cccc(-n2ccccc2=O)c1 [Example 303, 1-(2-fluorophenyl)-6-oxo-N-[(1R)-1-[3-(2-oxo-1-pyridyl)phenyl]ethyl]pyridazine-3-carboxamide]	> 10000
CNCc1ccccc1-c1ccc([C@@H](C)NC(=O)c2nn(-c3ccccc3F)c(=O)c3cc[nH]c23)s1 [Example 268, 5-(2-fluorophenyl)-N-[(1R)-1-[5-[2-(methylaminomethyl)phenyl]-2-thienyl]ethyl]-4-oxo-1H-pyrrolo[2,3-d]pyridazine-7-carboxamide]	< 1000
CNCc1ccccc1-c1ccc([C@@H](C)NC(=O)c2ccc(=O)n(-c3cnn(C)c3)n2)s1 [Example 278, N-[(1R)-1-[5-[2-(methylaminomethyl)phenyl]-2-thienyl]ethyl]-1-(1-methylpyrazol-4-yl)-6-oxo-pyridazine-3-carboxamide]	< 1000
C[C@@H](NC(=O)c1ccc(=O)n(-c2cccc(-c3ccn(C)n3)c2)n1)c1cccc(C(F)(F)CO)c1F [Example 330, N-[(1R)-1-[3-(1,1-difluoro-2-hydroxy-ethyl)-2-fluoro-phenyl]ethyl]-1-[3-(1-methylpyrazol-3-yl)phenyl]-6-oxo-pyridazine-3-carboxamide]	< 1000
CNCc1cc(F)ccc1-c1ccc([C@@H](C)NC(=O)c2ccc(=O)n(-c3ccccc3F)n2)s1 [Example 279, N-[(1R)-1-[5-[4-fluoro-2-(methylaminomethyl)phenyl]-2-thienyl]ethyl]-1-(2-fluorophenyl)-6-oxo-pyridazine-3-carboxamide]	< 1000
C[C@@H](NC(=O)c1ccc(=O)n(-c2cccnc2F)n1)c1ccc(-c2cc(F)ccc2CCN)s1 [Example 414, N-[(1R)-1-[5-[2-(2-aminoethyl)-5-fluorophenyl]-2-thienyl]ethyl]-1-(2-fluoro-3-pyridyl)-6-oxopyridazine-3-carboxamide]	< 1000
C[C@@H](NC(=O)c1ccc(=O)n(-c2ccc(OC(F)F)cc2)n1)c1cccc(C(F)(F)CO)c1F [Example 195, N-[(1R)-1-[3-(1,1-difluoro-2-hydroxy-ethyl)-2-fluoro-phenyl]ethyl]-1-[4-(difluoromethoxy)phenyl]-6-oxo-pyridazine-3-carboxamide]	< 1000
COc1ccc(-n2nc(C(=O)N[C@H](C)c3cccc(C(F)(F)CO)c3F)ccc2=O)c(F)c1 [Example 215, N-[(1R)-1-[3-(1,1-difluoro-2-hydroxy-ethyl)-2-fluoro-phenyl]ethyl]-1-(2-fluoro-4-methoxy-phenyl)-6-oxo-pyridazine-3-carboxamide]	< 1000

Other lines, results leading:

IC50 [nM]	SMILES
< 1000	Cc1nnn(C)c1-c1cccc(-n2nc(C(=O)N[C@H](C)c3cc(N)cc(C(F)(F)F)c3)ccc2=O)c1 [Example 350, N-[(1R)-1-[3-amino-5-(trifluoromethyl)phenyl]ethyl]-1-[3-(3,5-dimethyltriazol-4-yl)phenyl]-6-oxo-pyridazine-3-carboxamide]
< 1000	CCNC(=O)c1cccc(-n2nc(C(=O)N[C@H](C)c3cc(N)cc(C(F)(F)F)c3)ccc2=O)c1F [Example 234, (R)-N-(1-(3-amino-5-(trifluoromethyl)phenyl)ethyl)-1-(3-(ethylcarbamoyl)-2-fluorophenyl)-6-oxo-1,6-dihydropyridazine-3-carboxamide]
< 1000	CNCc1ccc(Cl)cc1-c1ccc([C@@H](C)NC(=O)c2ccc(=O)n(-c3cccnc3)n2)s1 [Example 285, N-[(1R)-1-[5-[5-chloro-2-(methylaminomethyl)phenyl]-2-thienyl]ethyl]-6-oxo-1-(3-pyridyl)pyridazine-3-carboxamide]
< 1000	C[C@@H](NC(=O)c1ccc(=O)n(-c2ccc(OC(F)F)cc2)n1)c1cc(N)cc(C(F)(F)F)c1 [Example 198, N-[(1R)-1-[3-amino-5-(trifluoromethyl)phenyl]ethyl]-1-[4-(difluoromethoxy)phenyl]-6-oxo-pyridazine-3-carboxamide]
< 1000	Cc1c([C@@H](C)NC(=O)c2ccc(=O)n(-c3ccccc3F)n2)cccc1C(F)(F)CO [Example 246, N-[(1R)-1-[3-(1,1-difluoro-2-hydroxy-ethyl)-2-methyl-phenyl]ethyl]-1-(2-fluorophenyl)-6-oxo-pyridazine-3-carboxamide]
< 1000	C[C@@H](O)c1cccc(-n2nc(C(=O)N[C@H](C)c3cc(N)cc(C(F)(F)F)c3)ccc2=O)c1 [Example 173, N-[(1R)-1-[3-amino-5-(trifluoromethyl)phenyl]ethyl]-1-[3-[(1R)-1-hydroxyethyl]phenyl]-6-oxo-pyridazine-3-carboxamide]
< 1000	CNCc1ccc(Cl)cc1-c1ccc([C@@H](C)NC(=O)c2ccc(=O)n(C3CCOCC3)n2)s1 [Example 411]
< 1000	C[C@@H](NC(=O)c1ccc(=O)n(-c2ccccc2)n1)c1cc(O)cc(F)c1 [Example 219, N-[(1R)-1-(3-fluoro-5-hydroxy-phenyl)ethyl]-6-oxo-1-phenyl-pyridazine-3-carboxamide]
< 1000	C[C@@H](NC(=O)c1nn(-c2cnn(C)c2)c(=O)c2ccsc12)c1cc(N)cc(C(F)(F)F)c1 [Example 316, N-[(1R)-1-[3-amino-5-(trifluoromethyl)phenyl]ethyl]-5-(1-methylpyrazol-4-yl)-4-oxo-thieno[2,3-d]pyridazine-7-carboxamide]
< 1000	C[C@@H](NC(=O)c1ccc(=O)n(-c2cccc(-c3ccn(C(F)F)n3)c2)n1)c1cc(N)cc(C(F)(F)F)c1 [Example 344, N-[(1R)-1-[3-amino-5-(trifluoromethyl)phenyl]ethyl]-1-[3-[1-(difluoromethyl)pyrazol-3-yl]phenyl]-6-oxo-pyridazine-3-carboxamide]
< 1000	CNCc1ccc(F)cc1-c1ncc([C@@H](C)NC(=O)c2ccc(=O)n(-c3ccccc3F)n2)s1 [Example 396, N-[(1R)-1-[2-[5-fluoro-2-(methylaminomethyl)phenyl]thiazol-5-yl]ethyl]-1-(2-fluorophenyl)-6-oxo-pyridazine-3-carboxamide]
< 1000	C[C@@H](NC(=O)C1=NN(c2ccccc2)C(=O)CC1)c1cc(N)cc(C(F)(F)F)c1 [Example 264, N-[(1R)-1-[3-amino-5-(trifluoromethyl)phenyl]ethyl]-6-oxo-1-phenyl-4,5-dihydropyridazine-3-carboxamide]

Source: patent EP4667458A1 (Kanaph Therapeutics Inc., priority 2023, dated 2024)
